According to patent publication US5922727A, “Antiviral substituted pyrimidinedione homocarbocyclic nucleoside derivatives and methods for the preparation thereof and compositions containing the same as active ingredients” (Samjin Pharmaceutical Co., Ltd, priority 1996, dated 1999):
Like-named read-outs stand apart in the source and are kept apart here.

Legend:
MT-4 cells = assay: cytotoxicity: viability of mock-infected MT-4 host cells (MTT method); assay type: cell-based; design: unit not given here; details: mock-infected MT-4 cells
Protocol: (§1) The anti-HIV assays were based on the inhibition of the virus-induced cytopathic effect in MT-4 cells as a described method in J. Med. Chem, 34, 357, 1991. Briefly, MT-4 cells were suspended in culture medium at 2.5×10^5 cells/ml and infected with 1000 CCID50 (50% cell culture infective dose) of HIV. Immediately, after virus infection, 100 μl of the cell suspension was brought into each well of a flat-bottomedmicrotitray containing various concentrations of the test compounds. After a 4 or 5 days incubation at 37° C., the number of viable cells was determined by the 3-(4,5-dimethylthiazol-2-yl)-2,5-diphenyltetrazolium bromide (MTT) method, as disclosed in J. Virol. Methods, 20, 309, 1988. The cytotoxicity of the compounds of the present invention was assessed in parallel with their antiviral activity. It was based on the viability of mock-infected host cells as determined by the MTT methods.

HIV = assay type: cell-based; details: ratio CD50/ED50
Protocol: as §1

[1] = marker b (undefined, shared with AZT^b)
[2] = marker a (undefined, shared with AZT^a)
[3] = marker c (undefined, shared with AZT^c)
[4] = marker d (undefined, shared with AZT^d)
[5] = marker e (undefined, shared with AZT^e)

`Cc1cc(C)cc(C(=O)c2c(C(C)C)c(=O)[nH]c(=O)n2CC2CCCC2)c1` [Example 22, 1-(Cyclopentyl)methyl-5-isopropyl-6-(3,5-dimethylbenzoyl)-2,4-pyrimidinedione] showed a CD50 (MT-4 cells; [1]) of 9.97.
`Cc1cc(C)cc(Oc2c(C(C)C)c(=O)[nH]c(=O)n2CC2CCCC2)c1` [Example 21, 1-(Cyclopentyl)methyl-5-isopropyl-6-(3,5-dimethylphenoxy)-2,4-pyrimidinedione] was tested, and the CD50 (MT-4 cells; [1]) was 10.04 and the S.I. (HIV; [1]) was 3,089.
In the case of `Cc1cc(C)cc(Oc2c(C(C)C)c(=O)[nH]c(=O)n2CC2CC=CC2)c1` [Example 15, 1-[(Cyclopent-3-en-1-yl)methyl]-5-isopropyl-6-(3,5-dimethylphenoxy)-2,4-pyrimidinedione], the CD50 (MT-4 cells; [2]) is reported as 10.07 and the S.I. (HIV; [2]) is reported as 1,624.
With `CCc1c(Oc2cc(C)cc(C)c2)n(CC2=CCC(CO)C2)c(=O)[nH]c1=O` (centres unmarked) [Example 18, 1-[(4-Hydroxymethylcyclopent-1-en-1-yl)methyl]-5-ethyl-6-(3,5-dimethyl-phenoxy)-2,4-pyrimidinedione] the CD50 (MT-4 cells; no run marker) was 12.78 and the S.I. (HIV; no run marker) was 1,131.
With `Cc1cc(C)cc(Sc2c(C(C)C)c(=O)[nH]c(=O)n2CC2CCCC2)c1` [Example 20, 1-[(Cyclopentyl)methyl]-5-isopropyl-6-(3,5-dimethyphenylthio)-2,4-pyrimidinedione] the CD50 (MT-4 cells; [1]) was 11.38 and the S.I. (HIV; [1]) was 24,264.
With `CCc1c(Oc2cc(C)cc(C)c2)n(CC2=CCCC2CO)c(=O)[nH]c1=O` (centres unmarked) [Example 19, 1-[(5-Hydroxymethylcyclopent-1-en-1-yl)methyl]-5-ethyl-6-(3,5-dimethyphenoxy)-2,4-pyrimidinedione] the CD50 (MT-4 cells; no run marker) was 55.37 and the S.I. (HIV; no run marker) was 1,384.
For `CCc1c(C(=O)c2cc(C)cc(C)c2)n(CC2CC=CC2)c(=O)[nH]c1=O` [Example 16, 1-[(Cyclopent-3-en-1-yl)methyl]-5-ethyl-6-(3,5-dimethylbenzoyl)-2,4-pyrimidinedione], the CD50 (MT-4 cells; [3]) was 1.52.
`CCc1c(Sc2ccccc2)n(CC2CC2(CO)CO)c(=O)[nH]c1=O` (centres unmarked) [Example 48, 1-[2-Bis(hydroxymethyl)cyclopropane-1-yl]methyl-5-ethyl-6-phenylthio-2,4-pyrimidinedione] was tested, and the CD50 (MT-4 cells; [3]) was 96.95 and the S.I. (HIV; [3]) was 923.
For `Cc1cc(C)cc(C(=O)c2c(C(C)C)c(=O)[nH]c(=O)n2CC2CC2(CO)CO)c1` (centres unmarked) [Example 55, 1-[2-Bis(hydroxymethyl)cyclopropane-1-yl]methyl-5-isopropyl-6-(3,5-dimethylbenzoyl)-2,4-pyrimidinedione], the CD50 (MT-4 cells; [3]) was 131.71 and the S.I. (HIV; [3]) was 21,806.
With `Cc1cn([C@H]2C[C@H](N=[N+]=[N-])[C@@H](CO)O2)c(=O)[nH]c1=O` [AZT, reference compound] the CD50 (MT-4 cells; [2]) was 1.13, the CD50 (MT-4 cells; [1]) was 0.73 and the CD50 (MT-4 cells; [3]) was 0.057. It also gave a CD50 (MT-4 cells; [4]) of 2.75, a CD50 (MT-4 cells; [5]) of 1.84 and a CD50 (MT-4 cells; no run marker) of 1.58. The S.I. (HIV; [2]) was 5,825, the S.I. (HIV; [1]) was 1,123 and the S.I. (HIV; [3]) was 83. For the same compound, the S.I. (HIV; [4]) was 5,500, the S.I. (HIV; [5]) was 3,172 and the S.I. (HIV; no run marker) was 2,633.
For `CCc1c(C(=O)c2cc(C)cc(C)c2)n(CCC2=CCCC2)c(=O)[nH]c1=O` [Example 35, 1-[2-(Cyclopent-1-en-1-yl)ethyl]-5-ethyl-6-(3,5-dimethylbenzoyl)-2,4-pyrimidinedione], the CD50 (MT-4 cells; [4]) was 28.58 and the S.I. (HIV; [4]) was 9,958.
In the case of `CCc1c(C(=O)c2cc(C)cc(C)c2)n(CC2CCCC2)c(=O)[nH]c1=O` [Example 23, 1-(Cyclopentyl)methyl-5-ethyl-6-(3,5-dimethylbenzoyl)-2,4-pyrimidinedione], the CD50 (MT-4 cells; [4]) is reported as > 100 and the S.I. (HIV; [4]) is reported as > 384,615.
With `CCc1c(Sc2cc(C)cc(C)c2)n(CC2CC=CC2)c(=O)[nH]c1=O` [Example 2, 1-[(Cyclopent-3-en-1-yl)methyl]-5-ethyl-6-(3,5-dimethylphenylthio)-2,4-pyrimidinedione] the CD50 (MT-4 cells; no run marker) was 7.86 and the S.I. (HIV; no run marker) was 60,930.
With `CCc1c(Sc2cc(C)cc(C)c2)n(CC2CC2(CO)CO)c(=O)[nH]c1=O` (centres unmarked) [Example 49, 1-[2-Bis(hydroxymethyl)cyclopropane-1-yl]methyl-5-ethyl-(3,5-dimethylphenylthio)-2,4-pyrimidinedione] the CD50 (MT-4 cells; [3]) was 21.56 and the S.I. (HIV; [3]) was 18,271.
With `CC(C)c1c(Sc2ccccc2)n(CC2CC2(CO)CO)c(=O)[nH]c1=O` (centres unmarked) [Example 52, 1-[2-Bis(hydroxymethyl)cyclopropane-1-yl]methyl-5-isopropyl-6-phenylthio-2,4-pyrimidinedione] the CD50 (MT-4 cells; [3]) was 104.12 and the S.I. (HIV; [3]) was 1,496.
For `Cc1cc(C)cc(C(=O)c2c(C(C)C)c(=O)[nH]c(=O)n2CCC2CC=CC2)c1` [Example 37, 1-[2-(Cyclopent-3-en-1-yl)ethyl]-5-isopropyl-6-(3,5-dimethylbenzoyl)-2,4-pyrimidinedione], the CD50 (MT-4 cells; [4]) was 9.23 and the S.I. (HIV; [4]) was 13,377.
With `CCc1c(Oc2cc(C)cc(C)c2)n(CC2CC=CC2)c(=O)[nH]c1=O` [Example 14, 1-[(Cyclopent-3-en-1-yl)methyl]-5-ethyl-6-(3,5-dimethylphenoxy)-2,4-pyrimidinedione] the CD50 (MT-4 cells; [1]) was 16.81 and the S.I. (HIV; [1]) was 400,238.
In the case of `Cc1cc(C)cc(Oc2c(C(C)C)c(=O)[nH]c(=O)n2CC2CC2(CO)CO)c1` (centres unmarked) [Example 54, 1-[2-Bis(hydroxymethyl)cyclopropane-1-yl]methyl-5-isopropyl-6-(3,5-dimethylphenoxy)-2,4-pyrimidinedione], the CD50 (MT-4 cells; [3]) is reported as 7.69 and the S.I. (HIV; [3]) is reported as 3,004.
For `Cc1cc(C)cc(C(=O)c2c(C(C)C)c(=O)[nH]c(=O)n2CC2CC=CC2)c1` [Example 17, 1-[(Cyclopent-3-en-1-yl)methyl]-5-isopropyl-6-(3,5-dimethylbenzoyl)-2,4-pyrimidinedione], the CD50 (MT-4 cells; [2]) was 19.16 and the S.I. (HIV; [2]) was 3,615.
`CCc1c(C(=O)c2cc(C)cc(C)c2)n(CCC2C=CCC2)c(=O)[nH]c1=O` (centres unmarked) [Example 40, 1-{2-(Cyclopent-2-en-1-yl)ethyl]-5-ethyl-6-(3,5-dimethylbenzoyl)-2,4-pyrimidinedione] was tested, and the CD50 (MT-4 cells; [5]) was 7.11 and the S.I. (HIV; [5]) was > 27,346.
For `CCc1c(Sc2cc(C)cc(C)c2)n(CC2=CCC(CO)(CO)C2)c(=O)[nH]c1=O` [Example 25, 1-{[4-Bis(hydroxymethyl)cyclopent-1-en-1-yl]methyl}-5-ethyl-6-(3,5-dimethyl-phenylthio)-2,4-pyrimidinedione], the CD50 (MT-4 cells; no run marker) was 14.64 and the S.I. (HIV; no run marker) was 2,762.
`Cc1cc(C)cc(Sc2c(C(C)C)c(=O)[nH]c(=O)n2CC2=CCC(CO)C2)c1` (centres unmarked) [Example 9, 1-[(4-Hydroxymethylcyclopent-1-en-1-yl)methyl]-5-isopropyl-6-(3,5-di-methylphenylthio)-2,4-pyrimidinedione] was tested, and the CD50 (MT-4 cells; no run marker) was 8.51 and the S.I. (HIV; no run marker) was 16,785.
With `Cc1cc(C)cc(Sc2c(C(C)C)c(=O)[nH]c(=O)n2CC2CC=CC2)c1` [Example 4, 1-[(Cyclopent-3-en-1-yl)methyl]-5-isopropyl-6-(3,5-dimethylphenylthio) -2,4-pyrimidinedione] the CD50 (MT-4 cells; [2]) was 11.40 and the S.I. (HIV; [2]) was 2,111.
For `CCc1c(C(=O)c2cc(C)cc(C)c2)n(CC2CC2(CO)CO)c(=O)[nH]c1=O` (centres unmarked) [Example 51, 1-[2-Bis(hydroxymethyl)cyclopropane-1-yl]methyl-5-ethyl-6-(3,5-dimethylbenzoyl)-2,4-pyrimidinedione], the CD50 (MT-4 cells; [3]) was 128.95 and the S.I. (HIV; [3]) was 12,165.
With `CCc1c(Sc2cc(C)cc(C)c2)n(CC2=CCC(CO)C2)c(=O)[nH]c1=O` (centres unmarked) [Example 7, 1-[(4-Hydroxymethylcyclopent-1-en-1-yl)methyl]-5-ethyl-6-(3,5-dimethylphenylthio)-2,4-pyrimidinedione] the CD50 (MT-4 cells; no run marker) was 7.69 and the S.I. (HIV; no run marker) was 3,004.
In the case of `Cc1cc(C)cc(Oc2c(C(C)C)c(=O)[nH]c(=O)n2CCC2C=CCC2)c1` (centres unmarked) [Example 42, 1-[2-(Cyclopent-2-en-1-yl)ethyl]-5-isopropyl-6-(3,5-dimethylphenoxy)-2,4-pyrimidinedione], the CD50 (MT-4 cells; [5]) is reported as 7.53 and the S.I. (HIV; [5]) is reported as 2,353.
In the case of `Cc1cc(C)cc(Sc2c(C(C)C)c(=O)[nH]c(=O)n2CC2CC2(CO)CO)c1` (centres unmarked) [Example 53, 1-[2-Bis(hydroxymethyl)cyclopropane-1-yl]methyl-5-isopropyl-6-(3,5-dimethylphenylthio)-2,4-pyrimidinedione], the CD50 (MT-4 cells; [3]) is reported as 13.39 and the S.I. (HIV; [3]) is reported as 7,199.
In the case of `CCc1c(C(=O)c2cc(C)cc(C)c2)n(CCC2CCCC2)c(=O)[nH]c1=O` [Example 44, 1-(2-Cyclopentyl)ethyl-5-ethyl-6-(3,5-dimethylbenzoyl)-2,4-pyrimidinedione], the CD50 (MT-4 cells; [5]) is reported as 8.58 and the S.I. (HIV; [5]) is reported as 5,958.
In the case of `CCc1c(Oc2cc(C)cc(C)c2)n(CC2CC2(CO)CO)c(=O)[nH]c1=O` (centres unmarked) [Example 50, 1-[2-Bis(hydroxymethyl)cyclopropane-1-yl]methyl-5-ethyl-6-(3,5-dimethylphenoxy)-2,4-pyrimidinedione], the CD50 (MT-4 cells; [3]) is reported as 111.79 and the S.I. (HIV; [3]) is reported as 7,763.
With `CCc1c(C(=O)c2cc(C)cc(C)c2)n(CCC2CC=CC2)c(=O)[nH]c1=O` [Example 36, 1-[2-(Cyclopent-3-en-1-yl)ethyl]-5-ethyl-6-(3,5-dimethylbenzoyl)-2,4-pyrimidinedione] the CD50 (MT-4 cells; [4]) was 10.30 and the S.I. (HIV; [4]) was 30,294.
